PMC6385813, “Macrocyclisation of small peptides enabled by oxetane incorporation” (Chemical Science, 2019)
Like-named read-outs stand apart in the source and are kept apart here. Positions of bridges follow the written chain, without caps; N, C: chain ends. Residues, ends and D or L forms follow the SMILES beside them.

Tests used:
[1] = target: T1, porcine Aminopeptidase N (APN) (Sus scrofa, UniProt P15145); assay: porcine Aminopeptidase N inhibition, spectrophotometric; format: biochemical
T1 construct: aminopeptidase from porcine kidney (pAPN, Sigma Aldrich); purchased Sigma Aldrich; host or cells: porcine kidney (microsomal preparation)
T1 sequence (P15145 1-963): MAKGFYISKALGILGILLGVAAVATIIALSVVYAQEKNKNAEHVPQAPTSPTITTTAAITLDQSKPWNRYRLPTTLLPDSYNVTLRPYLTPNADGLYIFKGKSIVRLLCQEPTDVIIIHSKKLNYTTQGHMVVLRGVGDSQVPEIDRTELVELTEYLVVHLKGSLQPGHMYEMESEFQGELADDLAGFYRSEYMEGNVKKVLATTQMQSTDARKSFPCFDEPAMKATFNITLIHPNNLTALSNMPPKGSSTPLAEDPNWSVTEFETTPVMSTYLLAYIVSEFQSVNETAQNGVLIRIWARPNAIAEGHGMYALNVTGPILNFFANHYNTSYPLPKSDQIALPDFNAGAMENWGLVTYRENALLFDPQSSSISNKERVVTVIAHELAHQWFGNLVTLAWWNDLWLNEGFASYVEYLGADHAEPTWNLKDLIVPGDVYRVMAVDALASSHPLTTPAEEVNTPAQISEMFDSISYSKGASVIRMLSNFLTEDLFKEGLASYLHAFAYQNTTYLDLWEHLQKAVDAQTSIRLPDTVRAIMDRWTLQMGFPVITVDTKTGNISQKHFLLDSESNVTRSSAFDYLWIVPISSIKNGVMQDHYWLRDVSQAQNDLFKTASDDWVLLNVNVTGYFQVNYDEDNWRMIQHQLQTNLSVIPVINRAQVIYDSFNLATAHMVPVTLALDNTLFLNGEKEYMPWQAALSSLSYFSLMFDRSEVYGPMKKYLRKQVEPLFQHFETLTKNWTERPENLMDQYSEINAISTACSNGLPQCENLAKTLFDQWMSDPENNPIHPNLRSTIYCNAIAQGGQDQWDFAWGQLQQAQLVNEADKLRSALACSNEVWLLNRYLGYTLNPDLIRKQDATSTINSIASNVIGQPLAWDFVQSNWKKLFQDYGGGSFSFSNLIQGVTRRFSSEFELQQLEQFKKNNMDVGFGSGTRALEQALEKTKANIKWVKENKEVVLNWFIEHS
Source text: Studies to explore the impact of oxetane modification on the bioactivity of the derived cyclic peptides were undertaken. cCNGRC (26) is known to target Aminopeptidase N (APN), a transmembrane zinc-dependent metalloprotease involved in a variety of processes, including blood pressure regulation, cell migration, viral uptake, cell survival, and angiogenesis.[18],[19] Both oxetane modified derivative 22 and cCNGRC (26) were examined for their inhibitory activity towards porcine APN using a spectrophotometric assay (Table 2).[19]
4. In vitro inhibition assay of aminopeptidase N with oxetane modified peptide 22 and parent
Peptide 26 was synthesised following a procedure by Piras et al.[10] using HCTU as coupling reagent and NMM as base. Oxidation was performed by on-resin cyclization as described for the biotin labelled […]
For the determination of IC50 values of oxetane modified peptide 22 and parent peptide 26, a protocol published by Piras et al.[10] was followed using L-leucine-p-nitroanilide as substrate and microsomal aminopeptidase from porcine kidney (pAPN, Sigma Aldrich) (18 units/mg protein). IC50 values were calculated by following the formation of p-nitroaniline. Formation of p-nitroaniline was monitored by measurement of the UV absorption at 405 nm on a Hidex Sense plate reader. […]

[2] = stability of oxetane to side-chain deprotection with TFA; format: physicochemical; details: 70% TFA/20% CH2Cl2/10% TIS, 2.5 h (global side-chain deprotection including Arg Pbf)
Source text: Macrocyclisations not involving head-to-tail ring closure have also been examined. Specifically, the formation of disulphide containing macrocycles through oxidative cyclisation of cysteine side chains has been explored (Scheme 5). Treatment of 2, whose synthesis was described in Scheme 3, with iodine provided the 17-membered macrocycle by way of trityl deprotection and disulphide bond formation. Further reaction with TFA in the presence of the cation scavenger triisopropylsilane (TIS) facilitated removal of all the side chain protecting groups providing 22 after reverse-phase HPLC purification. […] Smaller 11- and 14-membered macrocycles 23 and 24 were also conveniently produced in good yields using this methodology.
[formula] Scheme 5 Oxetane modified cyclic peptides by disulphide bond formation.^a^,^b^aReagents and conditions: (a) I2 (3.0 equiv.), MeOH, 1 h; (b) 70% TFA/20% CH2Cl2/10% TIS, 2.5 h. ^bBond formed in macrocyclisation indicated in red. ^cTFA step omitted; yield in parenthesis for the cyclisation of linear peptide with C?O rather than oxetane in backbone. ^dData taken from [ref. 14].
Fmoc-Cys(Trt)-Asn(Trt)-GOx-Arg(Pbf)-Cys(Trt)-OtBu (2)
Diethylamine (1.0 mL) was added to a solution of Fmoc-GOx-Arg(Pbf)-Cys(Trt)-OtBu (127) […]
and the reaction mixture was stirred at room temperature for 1 h. […]

Row | IC50 ([1]; read-out: IC50) | SMILES | oxetane stability to acid [2] | IC50 [1]
1 | 175 µM | N=C(N)NCCC[C@@H]1NC2(CNC(=O)[C@H](CC(N)=O)NC(=O)[C@@H](N)CSSC[C@@H](C(=O)O)NC1=O)COC2 [Compound 22, Cyclo(H-Cys-Asn-GOx-Arg-Cys-OH)] | survives the strongly acid conditions | –
2 | – | N=C(N)NCCC[C@@H]1NC(=O)CNC(=O)[C@H](CC(N)=O)NC(=O)[C@@H](N)CSSC[C@@H](C(=O)O)NC1=O [cCNGRC (26), reference compound] (H-CNGRC-OH; disulfide 1-5) | – | 212 µM
